Entries after “also recorded” stand apart in the source; their conditions may differ. Read-outs that look alike come from different tables or passages of the source.
What was measured:
Obese Zucker rats [1] = assay: In vivo assessment in obese Zucker rats: key biological parameters (fasting glucose, HbA1c, vitamin C, GSH, RBC lipid peroxidation); settings: for RBC Lipid Peroxidase: malondialdehyde by thiobarbituric acid; for RBC Lipid Peroxidase / blood vitamin C levels, effect in words / fasting glucose, effect in words / glycosylated hemoglobin, effect in words / red blood cell lipid peroxidation, effect in words / Fasting Glucose / GSH / HbA1c / Vitamin C: obese Zucker rats, 8 weeks; for RBC Lipid Peroxidase / Fasting Glucose / GSH / HbA1c / Vitamin C: daily 400 μg Cr(III)/kg, mean; for blood vitamin C levels, effect in words / fasting glucose, effect in words / glycosylated hemoglobin, effect in words / red blood cell lipid peroxidation, effect in words: effect of administration; for Fasting Glucose: fasted overnight; for Vitamin C: plasma
Obese Zucker rats [2] = assay: In vivo assessment in obese Zucker rats: vascular inflammation markers (MCP-1, CRP, RBP-4, leptin, ICAM, adiponectin); settings: for C-reactive protein, effect in words / adiponectin levels, effect in words / intracellular adhesion molecule, effect in words / monocyte chemotactic protein-1, effect in words / Leptin / RBP-4 / Adiponectin / CRP / ICAM / MCP-1: obese Zucker rats, 8 weeks; for C-reactive protein, effect in words / adiponectin levels, effect in words / intracellular adhesion molecule, effect in words / monocyte chemotactic protein-1, effect in words: effect of administration; for Leptin / RBP-4 / Adiponectin / CRP / ICAM / MCP-1: daily 400 μg Cr(III)/kg, mean; for Adiponectin / CRP / ICAM / MCP-1: plasma, ELISA
Obese Zucker rats [3] = assay: In vivo assessment in obese Zucker rats: other vascular inflammation markers (cAMP, TNFα, IL-6, OxyDNA); settings: for IL-6 / TNFα / cAMP / OxyDNA: obese Zucker rats, daily 400 μg Cr(III)/kg, 8 weeks, mean ± SE; for OxyDNA: oxidative DNA damage
Obese Zucker rats [4] = assay: In vivo assessment in obese Zucker rats: body weight and food intake; settings: for Food Intake 5 wks / Food Intake 7 wks: obese Zucker rats, daily 400 μg Cr(III)/kg, mean; for Food Intake 5 wks: at 5 weeks; for Food Intake 7 wks: at 7 weeks
Obese Zucker rats [5] = assay: In vivo assessment in obese Zucker rats: clinical chemistry (AP, BUN, CRT, AST, ALT)
Obese Zucker rats [6] = assay: In vivo assessment in obese Zucker rats: blood lipid profile (total cholesterol, triglycerides, HDL); settings: daily 400 μg Cr(III)/kg, 8 weeks, mean
Obese Zucker rats [7] = settings: rat, in vivo
[8] = compared to chromium nicotinate-glycine-cysteine-glutamic acid GTF complex of Toepfer et al.
[9] = listed as Chromium dinicocysteinate
[10] = listed as chromium dinicocysteinate
[11] = over chromium nicotinate, chromium picolinate and chromium histidinate

Chromium Dinicocysteinate [Cr(nic)2Cys]
fasting glucose vs GTF complex, in words (Obese Zucker rats [1]; [8]): decreased levels
glycosylated hemoglobin vs GTF complex, in words (Obese Zucker rats [1]; [8]): decreased levels
red blood cell lipid peroxidation vs GTF complex, in words (Obese Zucker rats [1]; [8]): decreased levels
vitamin C vs GTF complex, in words (Obese Zucker rats [1]; [8]): increased levels
RBC Lipid Peroxidase (Obese Zucker rats [1]): 1.81 nmol/mL
blood vitamin C levels, effect in words (Obese Zucker rats [1]; [9]): elevation
fasting glucose, effect in words (Obese Zucker rats [1]; [9]): reductions
glycosylated hemoglobin, effect in words (Obese Zucker rats [1]; [9]): reductions
red blood cell lipid peroxidation, effect in words (Obese Zucker rats [1]; [9]): reductions
blood vitamin C levels, effect in words (Obese Zucker rats [1]; [10]): increased
fasting glucose, effect in words (Obese Zucker rats [1]; [10]): reducing
glycosylated hemoglobin, effect in words (Obese Zucker rats [1]; [10]): reducing
red blood cell lipid peroxidation, effect in words (Obese Zucker rats [1]; [10]): reducing; also recorded: reduced
Fasting Glucose (Obese Zucker rats [1]): 446.24 mg/dL
GSH (Obese Zucker rats [1]): 4.74 µmol/g
HbA1c (Obese Zucker rats [1]): 14.76%
fasting glucose vs comparators, in words (Obese Zucker rats [1]; [11]): decreased levels
glycosylated hemoglobin vs comparators, in words (Obese Zucker rats [1]; [11]): decreased levels
vitamin C vs comparators, in words (Obese Zucker rats [1]; [11]): increased levels
red blood cell lipid peroxidase vs comparator, in words (Obese Zucker rats [1]; over chromium picolinate): lower levels
Vitamin C (Obese Zucker rats [1]): 0.18 mg %
adiponectin vs GTF complex, in words (Obese Zucker rats [2]; [8]): increased levels
C-reactive protein, effect in words (Obese Zucker rats [2]; [9]): reductions
adiponectin levels, effect in words (Obese Zucker rats [2]; [9]): elevation
intracellular adhesion molecule, effect in words (Obese Zucker rats [2]; [9]): reductions
monocyte chemotactic protein-1, effect in words (Obese Zucker rats [2]; [9]): reductions
C-reactive protein, effect in words (Obese Zucker rats [2]; [10]): reducing; also recorded: reductions
adiponectin levels, effect in words (Obese Zucker rats [2]; [10]): increases
intracellular adhesion molecule, effect in words (Obese Zucker rats [2]; [10]): reducing
monocyte chemotactic protein-1, effect in words (Obese Zucker rats [2]; [10]): reducing; also recorded: reductions
Leptin (Obese Zucker rats [2]): 407.32 pg/mL
RBP-4 (Obese Zucker rats [2]): 49670.13 ng/mL
C-reactive protein vs comparators, in words (Obese Zucker rats [2]; [11]): decreased levels
ICAM vs comparators, in words (Obese Zucker rats [2]; [11]): decreased levels
adiponectin vs comparators, in words (Obese Zucker rats [2]; [11]): increased levels
MCP-1 vs comparator, in words (Obese Zucker rats [2]; over chromium picolinate): lower levels
Adiponectin (Obese Zucker rats [2]): 12732.11 ng/mL
CRP (Obese Zucker rats [2]): 569.96 ng/mL
ICAM (Obese Zucker rats [2]): 17057.51 pg/mL
MCP-1 (Obese Zucker rats [2]): 2829.17 pg/mL
OxyDNA vs GTF complex, in words (Obese Zucker rats [3]; [8]): decreased levels
TNFα vs GTF complex, in words (Obese Zucker rats [3]; [8]): decreased levels
IL-6 (Obese Zucker rats [3]): 95.02 ± 1.99 pg/mL
TNFα (Obese Zucker rats [3]): 17.72 ± 3.35 pg/mL
cAMP (Obese Zucker rats [3]): 33.26 ± 2.61 pmol/mL
TNFα vs comparators, in words (Obese Zucker rats [3]; over chromium picolinate and chromium histidinate): lowered levels
OxyDNA (Obese Zucker rats [3]): 46.92 ± 2.24 ng/mL
food intake vs GTF complex, in words (Obese Zucker rats [4]; [8]): reduced
food intake, effect in words (Obese Zucker rats [4]; effect of administration): reduction
Food Intake 5 wks (Obese Zucker rats [4]): 34.43 g/day
Food Intake 7 wks (Obese Zucker rats [4]): 38.62 g/day
alkaline phosphatase activities, effect in words (Obese Zucker rats [5]; Zucker diabetic fatty rats, supplemented group): reduces
ALT vs GTF complex, in words (Obese Zucker rats [5]; [8]): decreased levels
AST vs GTF complex, in words (Obese Zucker rats [5]; [8]): decreased levels
blood creatinine, effect in words (Obese Zucker rats [5]; effect of administration): reducing
ALT (Alanine Aminotransferease) (Obese Zucker rats [5]; obese Zucker rats, mean ± SE): 99.00 u/L
AP (Alkaline phosphatase) (Obese Zucker rats [5]; obese Zucker rats, mean ± SE): 35.15 u/L
Anion Gap (Obese Zucker rats [5]; obese Zucker rats, mean ± SE): 29.62
BUN (Blood Urea Nitrogen) (Obese Zucker rats [5]; obese Zucker rats, mean ± SE): 18.23 mg/dL
CRT (Creatinine) (Obese Zucker rats [5]; obese Zucker rats, mean ± SE): 0.41 mg/dL
Total Bilirubin (Obese Zucker rats [5]; obese Zucker rats, mean ± SE): 0.05 mg/dL
HDL (Obese Zucker rats [6]): 66.46 mg/dL
Total Cholesterol (Obese Zucker rats [6]): 188.46 mg/dL
Triglyceride (Obese Zucker rats [6]): 550.89 mg/dL

Chromium Dinicotiante Glutamate [Cr(nic)2Glu]
RBC Lipid Peroxidase (Obese Zucker rats [1]): 2.30 nmol/mL
Fasting Glucose (Obese Zucker rats [1]): 490.43 mg/dL
GSH (Obese Zucker rats [1]): 5.05 µmol/g
HbA1c (Obese Zucker rats [1]): 14.69%
Vitamin C (Obese Zucker rats [1]): 0.14 mg %
Leptin (Obese Zucker rats [2]): 378.02 pg/mL
RBP-4 (Obese Zucker rats [2]): 46720.00 ng/mL
Adiponectin (Obese Zucker rats [2]): 12446.67 ng/mL
CRP (Obese Zucker rats [2]): 519.94 ng/mL
ICAM (Obese Zucker rats [2]): 16980.59 pg/mL
MCP-1 (Obese Zucker rats [2]): 3197.58 pg/mL
IL-6 (Obese Zucker rats [3]): 89.50 ± 3.22 pg/mL
cAMP (Obese Zucker rats [3]): 29.97 ± 1.43 pmol/mL
OxyDNA (Obese Zucker rats [3]): 43.62 ± 2.69 ng/mL
Food Intake 5 wks (Obese Zucker rats [4]): 37.51 g/day
Food Intake 7 wks (Obese Zucker rats [4]): 39.92 g/day
BUN/CRT Ratio (Obese Zucker rats [5]; obese Zucker rats, mean ± SE): 44.71
HDL (Obese Zucker rats [6]): 65.57 mg/dL
Total Chol/HDL (Obese Zucker rats [6]): 2.94 ratio
Total Cholesterol (Obese Zucker rats [6]): 192.14 mg/dL
Triglyceride (Obese Zucker rats [6]): 666.50 mg/dL

N=C(N)NCCC[C@H](N)C(=O)O [Arg, Arginine, reference compound]
RBC Lipid Peroxidase (Obese Zucker rats [1]): 2.23 nmol/mL
Fasting Glucose (Obese Zucker rats [1]): 446.60 mg/dL
GSH (Obese Zucker rats [1]): 4.77 µmol/g
HbA1c (Obese Zucker rats [1]): 15.88%
Vitamin C (Obese Zucker rats [1]): 0.14 mg %
Leptin (Obese Zucker rats [2]): 431.72 pg/mL
RBP-4 (Obese Zucker rats [2]): 47211.67 ng/mL
Adiponectin (Obese Zucker rats [2]): 9958.63 ng/mL
CRP (Obese Zucker rats [2]): 617.34 ng/mL
ICAM (Obese Zucker rats [2]): 17940.91 pg/mL
MCP-1 (Obese Zucker rats [2]): 3878.85 pg/mL
IL-6 (Obese Zucker rats [3]): 97.80 ± 0.93 pg/mL
TNFα (Obese Zucker rats [3]): 25.45 ± 0.93 pg/mL
cAMP (Obese Zucker rats [3]): 34.98 ± 0.92 pmol/mL
OxyDNA (Obese Zucker rats [3]): 62.90 ± 2.71 ng/mL
Food Intake 5 wks (Obese Zucker rats [4]): 37.73 g/day
Food Intake 7 wks (Obese Zucker rats [4]): 46.80 g/day
ALT (Alanine Aminotransferease) (Obese Zucker rats [7]): 179.20 u/L
AP (Alkaline phosphatase) (Obese Zucker rats [7]): 35.50 u/L
AST (Aspartate Aminotransferase) (Obese Zucker rats [7]): 276.80 u/L
BUN (Blood Urea Nitrogen) (Obese Zucker rats [7]): 21.00 mg/dL
CRT (Creatinine) (Obese Zucker rats [7]): 0.40 mg/dL
Total Bilirubin (Obese Zucker rats [7]): 0.00 mg/dL
HDL (Obese Zucker rats [6]): 68.69 mg/dL
Total Chol/HDL (Obese Zucker rats [6]): 2.86 ratio
Total Cholesterol (Obese Zucker rats [6]): 173.96 mg/dL
Triglyceride (Obese Zucker rats [6]): 485.74 mg/dL
